Key:
[1] = system: anti-Aβ antibodies in sera of vaccinated patients; assay: Epitope mapping, competitive binding inhibition EIA with patient sera (10-mer peptides, IC50); parameters: species or system human; Epitope mapping, fine specificity analysis, serum of subject P210: unit not given here; settings: for Epitope mapping, fine specificity analysis, serum of subject P101: serum 16 wpi of vaccinated patient P101; for Epitope mapping, fine specificity analysis, serum of subject P102: serum 16 wpi of vaccinated patient P102; for Epitope mapping, fine specificity analysis, serum of subject P103: serum 16 wpi of vaccinated patient P103; for Epitope mapping, fine specificity analysis, serum of subject P104: serum 16 wpi of vaccinated patient P104; for Epitope mapping, fine specificity analysis, serum of subject P105: serum 16 wpi of vaccinated patient P105; for Epitope mapping, fine specificity analysis, serum of subject P106: serum 16 wpi of vaccinated patient P106; for Epitope mapping, fine specificity analysis, serum of subject P107: serum 16 wpi of vaccinated patient P107; for Epitope mapping, fine specificity analysis, serum of subject P108: serum 16 wpi of vaccinated patient P108; for Epitope mapping, fine specificity analysis, serum of subject P109: serum 16 wpi of vaccinated patient P109; for Epitope mapping, fine specificity analysis, serum of subject P201: serum 16 wpi of vaccinated patient P201; for Epitope mapping, fine specificity analysis, serum of subject P202: serum 16 wpi of vaccinated patient P202; for Epitope mapping, fine specificity analysis, serum of subject P203: serum 16 wpi of vaccinated patient P203; for Epitope mapping, fine specificity analysis, serum of subject P204: serum 16 wpi of vaccinated patient P204; for Epitope mapping, fine specificity analysis, serum of subject P205: serum 16 wpi of vaccinated patient P205; for Epitope mapping, fine specificity analysis, serum of subject P206: serum 16 wpi of vaccinated patient P206; for Epitope mapping, fine specificity analysis, serum of subject P207: serum 16 wpi of vaccinated patient P207; for Epitope mapping, fine specificity analysis, serum of subject P208: serum 16 wpi of vaccinated patient P208; for Epitope mapping, fine specificity analysis, serum of subject P209: serum 16 wpi of vaccinated patient P209; for Epitope mapping, fine specificity analysis, serum of subject P210: serum 16 wpi of vaccinated patient P210
[2] = system: anti-Aβ antibodies in macaque antisera; assay: Specificity analysis (10-mer peptide ELISA) of antisera from Cynomolgus macaques; format: binding
[3] = antisera of macaques given UBI AD Vaccine 150 μg/dose, 9 WPI
[4] = antisera of macaques given UBI AD Vaccine 150 μg/dose, 15 WPI
[5] = antisera of macaques given UBI AD Vaccine 750 μg/dose, 9 WPI
[6] = antisera of macaques given UBI AD Vaccine 750 μg/dose, 15 WPI

Substance | Epitope mapping, fine specificity analysis, serum of subject P101 [1] | Epitope mapping, fine specificity analysis, serum of subject P102 [1] | Epitope mapping, fine specificity analysis, serum of subject P103 [1] | Epitope mapping, fine specificity analysis, serum of subject P104 [1] | Epitope mapping, fine specificity analysis, serum of subject P105 [1] | Epitope mapping, fine specificity analysis, serum of subject P106 [1] | Epitope mapping, fine specificity analysis, serum of subject P107 [1] | Epitope mapping, fine specificity analysis, serum of subject P108 [1] | Epitope mapping, fine specificity analysis, serum of subject P109 [1] | Epitope mapping, fine specificity analysis, serum of subject P201 [1] | Epitope mapping, fine specificity analysis, serum of subject P202 [1] | Epitope mapping, fine specificity analysis, serum of subject P203 [1] | Epitope mapping, fine specificity analysis, serum of subject P204 [1] | Epitope mapping, fine specificity analysis, serum of subject P205 [1] | Epitope mapping, fine specificity analysis, serum of subject P206 [1] | Epitope mapping, fine specificity analysis, serum of subject P207 [1] | Epitope mapping, fine specificity analysis, serum of subject P208 [1] | Epitope mapping, fine specificity analysis, serum of subject P209 [1] | Epitope mapping, fine specificity analysis, serum of subject P210 [1] | Reactivity of antisera with peptide (specificity analysis ELISA) [2, 3] | further results
15 (KMDAEFRHDS; PEPTIDE (1)..(10) Abeta -2-8 or APP 770(K670-S679); listed as Homo sapiens) [compound 15] | 94 | 0 | 0 | 0 | 0 | 0 | 0 | 0 | 0 | 2 | 7 | 0 | 12 | 0 | 0 | 0 | 0 | 0 | 52 | 0.065 | Reactivity of antisera with peptide (specificity analysis ELISA) [2, 4]: 0.031; Reactivity of antisera with peptide (specificity analysis ELISA) [2, 5]: 0.069; Reactivity of antisera with peptide (specificity analysis ELISA) [2, 6]: 0.062
16 (MDAEFRHDSG; PEPTIDE (1)..(10) Abeta -1-9 or APP 770(M671-G680); listed as Homo sapiens) [compound 16] | 420 | 12 | 0 | 0 | 0 | 0 | 0 | 0 | 0 | 9 | 116 | 0 | 17 | 0 | 0 | 2 | 6 | 0 | 121 | 0.056 | Reactivity of antisera with peptide (specificity analysis ELISA) [2, 4]: 0.061; Reactivity of antisera with peptide (specificity analysis ELISA) [2, 5]: 0.051; Reactivity of antisera with peptide (specificity analysis ELISA) [2, 6]: 0.056
17 (AEFRHDSGYE; PEPTIDE (1)..(10) Abeta 2-11 or APP 770(A673-E682); listed as Homo sapiens) [compound 17] | 2 | 0 | 0 | 0 | 0 | 0 | 0 | 0 | 0 | 3 | 0 | 0 | 0 | 0 | 0 | 0 | 0 | 0 | 0 | 0.058 | Reactivity of antisera with peptide (specificity analysis ELISA) [2, 4]: 0.059; Reactivity of antisera with peptide (specificity analysis ELISA) [2, 5]: 0.054; Reactivity of antisera with peptide (specificity analysis ELISA) [2, 6]: 0.060
18 (EFRHDSGYEV; PEPTIDE (1)..(10) Abeta 3-12 or APP 770(E674-V683); listed as Homo sapiens) [compound 18] | 0 | 0 | 0 | 0 | 0 | 0 | 0 | 0 | 0 | 0 | 0 | 0 | 0 | 0 | 0 | 0 | 0 | 0 | 0 | 0.047 | Reactivity of antisera with peptide (specificity analysis ELISA) [2, 4]: 0.060; Reactivity of antisera with peptide (specificity analysis ELISA) [2, 5]: 0.042; Reactivity of antisera with peptide (specificity analysis ELISA) [2, 6]: 0.052
19 (FRHDSGYEVH; PEPTIDE (1)..(10) Abeta 4-13 or APP 770(F675-H684); listed as Homo sapiens) [compound 19] | 0 | 0 | 0 | 0 | 0 | 0 | 0 | 0 | 0 | 0 | 0 | 0 | 0 | 0 | 0 | 0 | 0 | 0 | 0 | 0.085 | Reactivity of antisera with peptide (specificity analysis ELISA) [2, 4]: 0.076; Reactivity of antisera with peptide (specificity analysis ELISA) [2, 5]: 0.066; Reactivity of antisera with peptide (specificity analysis ELISA) [2, 6]: 0.096

Reference: patent publication US9102752B2, “Peptide vaccine for prevention and immunotherapy of dementia of the Alzheimer's type” (United Biomedical, Inc., priority 2013, dated 2015)
